Target: human TRPM8 (Homo sapiens (Human), UniProt Q7Z2W7)
Assay: TRPM8 inhibition assay (menthol-induced calcium influx, FDSS)
Format: cell-based
Conditions: HEK293 cells stably expressing human TRPM8; 100 μmol/L menthol; Fura-2AM calcium signal; read-out: TRPM8 Blocking Test (IC50/nmol/L)
Method: The functional activity of a test compound was determined by measuring change in intracellular calcium concentration using a calcium sensitive fluorescent dye. The change in fluorescent signal was measured by the cell imaging technology by Hamamatsu Photonics's Functional Drug Screening System (FDSS).
HEK293 cells stably expressing human TRPM8 were grown in a flask. On assay day, the culture medium was removed from the flask, and cells were washed with phosphate-buffered saline (PBS) and harvested with PBS containing 2 mmol/L of ethylenediaminetetraacetic acid disodium salt (EDTA-2Na). […] Subsequently, suspended 20,000 to 50,000 cells per well were incubated with a test compound (at varying concentrations) in each well at 37° C. for 20 minutes. Change in intracellular calcium concentration evoked by 100 μmol/L of menthol was measured for 2 minutes using FDSS. […] The concentration-response curve was generated using the average of quadruplicate wells for each data point.

Sequence of human TRPM8 (Q7Z2W7 whole entry): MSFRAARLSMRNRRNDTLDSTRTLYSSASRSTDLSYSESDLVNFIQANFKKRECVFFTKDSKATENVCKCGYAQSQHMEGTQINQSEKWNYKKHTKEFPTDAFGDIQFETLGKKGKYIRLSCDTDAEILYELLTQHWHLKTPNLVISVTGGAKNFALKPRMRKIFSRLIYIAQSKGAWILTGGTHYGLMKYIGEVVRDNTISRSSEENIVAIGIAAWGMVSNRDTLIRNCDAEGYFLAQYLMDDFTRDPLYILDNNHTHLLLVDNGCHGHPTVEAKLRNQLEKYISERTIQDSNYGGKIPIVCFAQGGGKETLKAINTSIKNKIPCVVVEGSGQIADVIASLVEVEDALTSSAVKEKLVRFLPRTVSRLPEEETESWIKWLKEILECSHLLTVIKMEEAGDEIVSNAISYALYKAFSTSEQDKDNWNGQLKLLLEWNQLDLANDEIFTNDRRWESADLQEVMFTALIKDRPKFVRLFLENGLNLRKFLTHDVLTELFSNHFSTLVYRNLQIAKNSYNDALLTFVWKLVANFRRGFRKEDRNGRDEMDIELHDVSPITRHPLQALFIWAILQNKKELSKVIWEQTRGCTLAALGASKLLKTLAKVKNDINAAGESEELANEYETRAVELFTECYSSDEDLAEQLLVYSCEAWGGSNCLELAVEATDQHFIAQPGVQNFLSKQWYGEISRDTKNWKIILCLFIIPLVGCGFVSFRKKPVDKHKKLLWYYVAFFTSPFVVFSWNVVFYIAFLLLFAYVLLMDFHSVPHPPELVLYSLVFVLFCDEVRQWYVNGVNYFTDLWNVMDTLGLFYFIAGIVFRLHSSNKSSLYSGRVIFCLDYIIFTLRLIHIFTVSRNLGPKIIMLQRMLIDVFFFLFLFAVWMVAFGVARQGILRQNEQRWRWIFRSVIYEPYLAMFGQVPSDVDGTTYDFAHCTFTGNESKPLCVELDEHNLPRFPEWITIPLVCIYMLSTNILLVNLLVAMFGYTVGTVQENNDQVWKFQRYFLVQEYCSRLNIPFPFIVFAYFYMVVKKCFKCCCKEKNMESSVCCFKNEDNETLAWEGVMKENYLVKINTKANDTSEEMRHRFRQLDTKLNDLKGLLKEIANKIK

SMILES | IC50 [nmol/L]
Cc1n[nH]c(-c2ccc(S(=O)(=O)N(Cc3ccc(OC(F)(F)F)cc3)c3ncc4ccccc4c3C3CC3)cn2)n1 [Example 30] | 1.1
O=S(=O)(c1ccc(-c2ncn[nH]2)nc1)N(Cc1ccc(OC(F)(F)F)cc1)c1ncc2ccccc2c1C1CC1 [Example 6, N-(4-cyclopropylisoquinolin-3-yl)-6-(1H-1,2,4-triazol-5-yl)-N-[4-(trifluoromethoxy)benzyl]pyridine-3-sulfonamide] | 1.7
O=C(O)c1ccc(S(=O)(=O)N(Cc2ccc(OC(F)(F)F)cc2)c2ncc3ccccc3c2C2CC2)cc1Br [Example 48] | 6.3
O=C(O)c1ccc(S(=O)(=O)N(Cc2ccc(OC(F)(F)F)cc2)c2ncc3ccccc3c2C2CC2)cc1C1CC1 [Example 43] | 10.1
Cc1cc(S(=O)(=O)N(Cc2ccc(C(F)(F)F)cn2)c2ncc3ccccc3c2C2CC2)ccc1-c1ncn[nH]1 [Example 26] | 1
O=C(O)c1ccc(S(=O)(=O)N(Cc2ccc(OC(F)(F)F)cc2)c2ncc3ccccc3c2C2CC2)cc1F [Example 52] | 1
Cc1cc(S(=O)(=O)N(Cc2ccc(OC(F)(F)F)cc2)c2nc(C3CC3)c3ccccc3c2C)ccc1C(=O)O [Example 40, 4-({(1-cyclopropyl-4-methylisoquinolin-3-yl)[4-(trifluoromethoxy)benzyl]amino}sulfonyl)-2-methylbenzoic acid] | 6.5
Cc1cc(C(=O)O)ccc1S(=O)(=O)N(Cc1ccc(OC(F)(F)F)cc1)c1ncc2ccccc2c1C1CC1 [Example 38, 4-({(4-cyclopropylisoquinolin-3-yl)[4-(trifluoromethoxy)benzyl]amino}sulfonyl)-3-methylbenzoic acid] | 0.7
CCc1cc(S(=O)(=O)N(Cc2ccc(OC(F)(F)F)cc2)c2ncc3ccccc3c2C(F)(F)F)ccc1C(=O)O [Example 53] | 3
CN(C)c1cc(S(=O)(=O)N(Cc2ccc(OC(F)(F)F)cc2)c2ncc3ccccc3c2C2CC2)ccc1C(=O)O [Example 45] | 2.9
O=c1[nH]c(-c2ccc(S(=O)(=O)N(Cc3ccc(C(F)(F)F)cn3)c3ncc4ccccc4c3C3CC3)cc2)no1 [Example 31] | 1.1
Cc1n[nH]c(-c2ccc(S(=O)(=O)N(Cc3ccc(C(F)(F)F)cn3)c3ncc4ccccc4c3C3CC3)cc2C)n1 [Example 27] | 0.8
Cc1n[nH]c(-c2ccc(S(=O)(=O)N(Cc3ccc(C(F)(F)F)cn3)c3ncc4ccccc4c3C3CC3)cc2)n1 [Example 25] | 0.7
COc1cc(S(=O)(=O)N(Cc2ccc(OC(F)(F)F)cc2)c2ncc3ccccc3c2C2CC2)ccc1C(=O)O [Example 50] | 11.7
O=S(=O)(c1ccc(-c2nnn[nH]2)cc1)N(Cc1ccc(C(F)(F)F)cn1)c1ncc2ccccc2c1C1CC1 [Example 18] | 0.9
